Results taken from patent US7517996B2, “Azole compound” (Ajinomoto Co., Inc., priority 2003, dated 2009).

Assay: Inhibition of LPA-induced intracellular Ca2+ concentration increase (FLIPR)
Type: cell-based
Settings: LPA final concentration 5 μM; rat hepatic stellate cell derived myofibroblast like clone; Fluo-3, FLIPR
Excerpt: (1) Establishment of Myofibroblast Like Cell Strain Derived from Rat Hepatic Stellate Cell Fraction A stellate cell fraction was obtained from the liver of male Wistar rat according to a conventional method (European J. Biochem., 1993, vol. 213, p. 815). After subculture for several generations, the cell was cloned by limiting dilution. Well grown 24 clones that formed colonies were isolated. These clones were stained with αSMA antibody and confirmed to be all positive and to have Myofibroblast like properties. […] (2) Measurement of Cell Activation (Intracellular Ca^2+ Concentration Increasing Action)-Inhibitory Activity The above-mentioned cells were cultured overnight in a 384 well plate at 24,000 cells/well and the medium was removed. An assay buffer (0.1% BSA, 20 mM HEPES, 1×HBSS, 2.5 mM Probenecid) containing 4 μM of Fluo-3, AM (Biotium) was added, and the cells were stained at 37° C. for 1 hour. Following the buffer containing the dye reagent was removed, and an assay buffer was added, intracellular Ca^2+ concentration was measured with FLIPR (Molecular Devices). Adding a test substance and LPA at the final concentration of 5 μM, the inhibitory action of the test substance on the increase in the intracellular Ca^2+ concentration by LPA was examined. The increase in the intracellular Ca^2+ concentration by LPA addition without test substance was taken as 100%, that without the addition of LPA was taken as 0%, and the substrate's concentration (IC50) at inhibiting increase in the intracellular Ca^2+ concentration by 50% was determined.

Point of comparison: C[C@@H](OC(=O)Nc1conc1-c1ccc(CS(=O)(=O)CCC(=O)O)cc1)c1ccccc1Cl [Compound 28, 3-(4-{4-[(1R)-1-(2-chlorophenyl)ethoxycarbonylamino]-3-isoxazolyl}benzylsulfonyl)propionic acid], IC50 36 nM. Against it:
- CC(OC(=O)Nc1conc1-c1ccc(CSCCC(=O)O)cc1)c1ccccc1Cl (stereo not drawn) [Compound 2, 3-(4-{4-[1-(2-chlorophenyl)ethoxycarbonylamino]-3-isoxazolyl}benzylsulfanyl)propionic acid] — within 1.5-fold, 51 nM
- C[C@@H](OC(=O)Nc1conc1-c1ccc(CSCCC(=O)O)cc1)c1ccccc1Cl [Compound 3, 3-(4-{4-[(1R)-1-(2-chlorophenyl)ethoxycarbonylamino]-3-isoxazolyl}benzylsulfanyl)propionic acid] — 1.6-fold lower, 22 nM
- CC(=O)N[C@@H](CSCc1ccc(-c2nocc2NC(=O)OC(C)c2ccccc2Cl)cc1)C(=O)O (stereo partly drawn) [Compound 4, N-acetyl-S-(4-{4-[1-(2-chlorophenyl)ethoxycarbonylamino]-3-isoxazolyl}benzyl)-L-cysteine] — 1.8-fold higher, 65 nM
- CC(OC(=O)Nc1conc1-c1ccc(CSCCS(=O)(=O)O)cc1)c1ccccc1Cl (stereo not drawn) [Compound 5, 2-(4-{4-[1-(2-chlorophenyl)ethoxycarbonylamino]-3-isoxazolyl}benzylsulfanyl)ethanesulfonic acid] — 2.1-fold higher, 74 nM
- C[C@@H](OC(=O)Nc1conc1-c1ccc(CSCCC(=O)O)cc1)c1ccccc1Br [Compound 6, 3-(4-{4-[(1R)-1-(2-bromophenyl)ethoxycarbonylamino]-3-isoxazolyl}benzylsulfanyl)propionic acid] — 1.6-fold lower, 22 nM
- CC(=O)N[C@@H](CSCc1ccc(-c2nocc2NC(=O)O[C@H](C)c2ccccc2Br)cc1)C(=O)O [Compound 7, N-acetyl-S-(4-{4-[(1R)-1-(2-bromophenyl)-ethoxycarbonylamino]-3-isoxazolyl}benzyl)-L-cysteine] — 1.6-fold higher, 59 nM
- CC(OC(=O)Nc1conc1-c1ccc(CSCCC(=O)O)cc1)C1=C(Cl)CCC1 (stereo not drawn) [Compound 8, 3-(4-{4-[1-(2-chloro-1-cyclopentenyl)ethoxycarbonylamino]-3-isoxazolyl}benzylsulfanyl)propionic acid] — within 1.5-fold, 29 nM
- C[C@@H](OC(=O)Nc1conc1-c1ccc(CSCCC(=O)O)cc1)C1=C(Cl)CCC1 [Compound 9, 3-(4-{4-[(1R)-1-(2-chloro-1-cyclopentenyl)ethoxycarbonyl-amino]-3-isoxazolyl}benzylsulfanyl)propionic acid] — within 1.5-fold, 26 nM
- CC(OC(=O)Nc1conc1-c1ccc(CSCCC(=O)O)cc1)C1=C(Cl)CCCC1 (stereo not drawn) [Compound 10, 3-(4-{4-[1-(2-chloro-1-cyclohexenyl)ethoxycarbonylamino]-3-isoxazolyl}benzylsulfanyl)propionic acid] — 1.6-fold higher, 56 nM
- CC(OC(=O)Nc1conc1-c1ccc(CS(=O)(=O)CCC(=O)O)cc1)c1ccccc1Cl (stereo not drawn) [Compound 11, 3-(4-{4-[1-(2-chlorophenyl)ethoxycarbonylamino]-3-isoxazolyl}benzylsulfonyl)propionic acid] — 3.2-fold higher, 115 nM
- C[C@@H](OC(=O)Nc1conc1-c1ccc(CS(=O)(=O)CCC(=O)O)cc1)c1ccccc1Br [Compound 12, 3-(4-{4-[(1R)-1-(2-bromophenyl)ethoxycarbonylamino]-3-isoxazolyl}benzylsulfonyl)propionic acid] — 1.9-fold higher, 68 nM
- CC(OC(=O)Nc1conc1-c1ccc(CS(=O)(=O)CCC(=O)O)cc1)C1=C(Cl)CCCC1 (stereo not drawn) [Compound 13, 3-(4-{4-[1-(2-chloro-1-cyclohexenyl)ethoxycarbonylamino]-3-isoxazolyl}benzylsulfonyl)propionic acid] — 2.9-fold higher, 104 nM
- CC(OC(=O)Nc1conc1-c1ccc(CCSCC(=O)O)cc1)c1ccccc1Cl (stereo not drawn) [Compound 14, {[2-(4-{4-[1-(2-chlorophenyl)ethoxycarbonylamino]-3-isoxazolyl}phenyl)ethyl]thio}acetic acid] — 4.1-fold higher, 146 nM
- CC(OC(=O)Nc1conc1-c1ccc(CCSCCC(=O)O)cc1)c1ccccc1Cl (stereo not drawn) [Compound 15, {3-[2-(4-{4-[1-(2-chlorophenyl)ethoxycarbonylamino]-3-isoxazolyl}phenyl)ethyl]thio}propionic acid] — within 1.5-fold, 44 nM
- CC(OC(=O)Nc1conc1-c1ccc(CCSCC(=O)O)cc1)C1=C(Cl)CCC1 (stereo not drawn) [Compound 16, {[2-(4-{4-[1-(2-chlorocyclopentenyl)ethoxycarbonylamino]-3-isoxazolyl}phenyl)ethyl]thio}acetic acid] — within 1.5-fold, 32 nM
- CC(OC(=O)Nc1conc1-c1ccc(CCSCC(=O)O)cc1)C1=C(Cl)CCCC1 (stereo not drawn) [Compound 17, {[2-(4-{4-[1-(2-chlorocyclohexenyl)ethoxycarbonylamino]-3-isoxazolyl}phenyl)ethyl]thio}acetic acid] — 1.7-fold higher, 62 nM
- CC(OC(=O)Nc1cnoc1-c1ccc(CSCCC(=O)O)cc1)c1ccccc1Cl (stereo not drawn) [Compound 18, 3-(4-{4-[1-(2-chlorophenyl)ethoxycarbonylamino]-5-isoxazolyl}benzylsulfanyl)propionic acid] — 2.2-fold higher, 81 nM
- CC(OC(=O)Nc1conc1-c1ccc(CCCCC(=O)O)cc1)c1ccccc1Cl (stereo not drawn) [Compound 19, 5-(4-{4-[1-(2-chlorophenyl)ethoxycarbonylamino]-3-isoxazolyl}phenyl)-4-pentanoic acid] — within 1.5-fold, 47 nM
- CC(OC(=O)Nc1conc1-c1ccc(COC(=O)NCCC(=O)O)cc1)c1ccccc1Cl (stereo not drawn) [Compound 20, 3-(4-{4-[1-(2-chlorophenyl)ethoxycarbonylamino]-3-isoxazolyl}benzyloxycarbonylamino)propionic acid] — 2.3-fold higher, 83 nM
- CC(OC(=O)Nc1conc1-c1ccc(NC(=O)C[C@@H](O)C(=O)O)cc1)c1ccccc1Cl (stereo partly drawn) [Compound 21, 4-[(4-{4-[1-(2-chlorophenyl)ethoxycarbonylamino]-3-isoxazolyl}phenyl)amino]-(2R)-2-hydroxy-4-oxobutanoic acid] — 2.3-fold higher, 84 nM
- CC(=O)Oc1ccc(-c2nocc2NC(=O)OC(C)c2ccccc2Cl)cc1 (stereo not drawn) [Compound 22, 4-[4-({[1-(2-chlorophenyl)ethoxy]carbonyl}amino)-3-isoxazolyl]phenyl acetate] — 3.9-fold higher, 140 nM
- CC(OC(=O)Nc1conc1-c1ccc(O)cc1)c1ccccc1Cl (stereo not drawn) [Compound 23, 1-(2-chlorophenyl)ethyl 3-(4-hydroxyphenyl)-4-isoxazolylcarbamate] — 3.2-fold higher, 116 nM
- CC(OC(=O)Nc1conc1-c1ccc(OCCCCC(=O)O)cc1)c1ccccc1Cl (stereo not drawn) [Compound 24, 5-(4-{4-[1-(2-chlorophenyl)ethoxycarbonylamino]-3-isoxazolyl}phenoxy)pentanoic acid] — 3.6-fold higher, 131 nM
- CC(OC(=O)Nc1conc1-c1ccc(NC(=O)CCC(=O)O)cc1)c1ccccc1Cl (stereo not drawn) [Compound 25, 4-[(4-{4-[1-(2-chlorophenyl)ethoxycarbonylamino]-3-isoxazolyl}phenyl)amino]-4-oxobutanoic acid] — 2-fold higher, 73 nM
- CC(=O)O[C@H](CC(=O)Nc1ccc(-c2nocc2NC(=O)OC(C)c2ccccc2Cl)cc1)C(=O)O (stereo partly drawn) [Compound 26, (2R)-2-acetoxy-4-[(4-{4-[1-(2-chlorophenyl)ethoxy-carbonylamino]-3-isoxazolyl}phenyl)amino]-4-oxobutanoic acid] — 3.9-fold higher, 141 nM
- C[C@@H](OC(=O)Nc1conc1-c1ccc(CCSCC(=O)O)cc1)c1ccccc1Cl [Compound 27, {[2-(4-{4-[(1R)-1-(2-chlorophenyl)ethoxycarbonylamino]-3-isoxazolyl}phenyl)ethyl]thio}acetic acid] — 1.9-fold lower, 19 nM
- C[C@@H](OC(=O)Nc1conc1-c1ccc(CCSCCC(=O)O)cc1)c1ccccc1Cl [Compound 29, {3-[2-(4-{4-[(1R)-1-(2-chlorophenyl)ethoxycarbonylamino]-3-isoxazolyl}phenyl)ethyl]thio}propionic acid] — within 1.5-fold, 29 nM
- C[C@@H](OC(=O)Nc1conc1-c1ccc(/C=C/CCC(=O)O)cc1)c1ccccc1Cl [Compound 30, 5-(4-{4-[(1R)-1-(2-chlorophenyl)ethoxycarbonylamino]-3-isoxazolyl}phenyl)-4-pentenoic acid] — 3-fold higher, 107 nM
- C[C@@H](OC(=O)Nc1conc1-c1ccc(CCCCC(=O)O)cc1)c1ccccc1Cl [Compound 31, 5-(4-{4-[(1R)-1-(2-chlorophenyl)ethoxycarbonylamino]-3-isoxazolyl}phenyl)-4-pentanoic acid] — 2.1-fold higher, 76 nM
- C[C@@H](OC(=O)Nc1conc1-c1ccc(CCCCCC(=O)O)cc1)c1ccccc1Cl [Compound 32, 6-(4-{4-[(1R)-1-(2-chlorophenyl)ethoxycarbonylamino]-3-isoxazolyl}phenyl)hexanoic acid] — 3.2-fold higher, 114 nM
- CC(OC(=O)Nc1conc1-c1ccc(CCC(C)(C)CC(=O)O)cc1)c1ccccc1Cl (stereo not drawn) [Compound 33, 5-(4-{4-[1-(2-chlorophenyl)ethoxycarbonylamino]-3-isoxazolyl}phenyl)-3,3-dimethylpentanoic acid] — 3.3-fold higher, 119 nM
- CC(CCCc1ccc(-c2nocc2NC(=O)O[C@H](C)c2ccccc2Cl)cc1)C(=O)O (stereo partly drawn) [Compound 34, 5-(4-{4-[(1R)-1-(2-chlorophenyl)ethoxycarbonylamino]-3-isoxazolyl}phenyl)-2-methylpentanoic acid] — 2.8-fold higher, 102 nM
